Where two headings read alike, the source gives them in different places.
Assays:
olKmt2d = assay: Kmt2d morpholino injection in medaka embryos (in vivo model for KS); design: species or system Oryzias latipes; conditions: MO-Kmt2d injected at 0.015 mM, of 1,600 injected embryos, later developmental stages
Experimental: (§1) The Cab-strain of wt medaka fish (Oryzias latipes) was maintained following standard conditions (i.e., 12 h/12 h dark/light conditions at 27° C.). Embryos were staged according to the method proposed by Iwamatsu. All studies on fish were conducted in strict accordance with the institutional guidelines for animal research and approved by the Italian Ministry of Health: Department of Public Health, Animal Health, Nutrition, and Food Safety.
(§2) The available medaka olKmt2d (ENSORLT00000009505.1) genomic sequences were retrieved from a public database (UCSC Genome Browser, http://genome.ucsc.edu/) from human KMT2D (NM_003482.3) transcript. A morpholino (Mo: Gene Tools LLC, Oregon, USA) was designed against the ATG initiation codon within the 5′ untranslated region of the medaka ortholog of the (MO-Kmt2d: 5′-[…]-3′) of the medaka orthologous of the KMT2D gene. The specificity and inhibitory efficiencies of morpholino was determined as previously described (Conte et al., 2015). MO-Kmt2d was injected at 0.015 mM concentration into one blastomere at the one/two-cell stage. Off-target effects of the morpholino injections were excluded by repeated experiments with control morpholino or by co-injection with a p53 morpholino. For the drug treatment, chorions from injected and control embryos were removed with the hatching enzyme at St32. […]

MLL4^Q4092X MSCs [1] = assay: Gene expression profiling (RNA-seq) of MSCs after VE-822 treatment; format: cell-based, human; conditions: 8 and 24 hours after ATR inhibition
Experimental: WT and MLL^4Q4092X MSCs were seeded as sparse (5000 cells/cm^2) condition and collected 48 h after plating, either untreated or at 8 and 24 hours after ATR inhibition (VE-822 treatment) (medchem express #HY-13902/cs-1861). Cells were directly lysed on plates with TRIzol (Thermo Fisher cat. #15596026), and total RNAs were extracted according to the manufacturer's instructions.
Contaminating genomic DNA was removed by DNase (Qiagen 843 cat. #79254) digestion. RNA quality and concentration were assessed using the 2100 Bioanalyzer (Agilent cat. #G2939BA) and the Qubit fluorometer (Thermo Fisher cat. #Q33226), respectively. 3′-RNA-seq libraries were prepared by using the QuantSeq 3′ mRNA-Seq Library Prep Kit FWD for Illumina (Lexogen cat. #015.24) and starting from 500 ng of total RNA. Libraries were sequenced as single reads of 50 bp with the Illumina HiSeq2500. Three independent biological replicates were performed for each cell line and time point and sequenced as independent libraries.
Raw reads from fastq files were first checked for their quality using FastQC and trimmed using Trimmomatic (Bolger et al., 2014). Trimmed reads were aligned to the reference human genome assembly hg38/GRCh38 using STAR with default parameters. […] For annotation of the reads to the genome, HOMER was employed with the following command ‘analyzeRepeats.pl rna hg38-count 3utr-rpkm’. […]

MLL4^Q4092X MSCs [2] = assay: Chondrocyte micromass differentiation of MSCs (Alcian blue); format: cell-based, human; conditions: in vitro
Experimental: For chondrocyte micromass culture, a cell solution of 1.6× 10^7 viable cells/mL was produced. Micromass cultures were generated by seeding 5-μL droplets of cell solution. After cultivating micromass cultures for 2 hours under high humidity conditions, MSCs medium was added. The day after, the medium was changed with chondrogenesis medium (Gibco #A10069-01) supplemented with Stem-Pro Chondrogenesis supplement (Gibco #10064-01). For complete differentiation, cells were maintained in culture for three weeks changing media regularly.
To detect chondrogenesis, cells were washed with PBS and fixed in 4% formaldehyde for 1 hr at RT and then washed with PBS. Cells were incubated with Alcian blue solution (1 g/L in 0.1 M HCl, Sigma-Aldrich #B8438) for 6 hrs at room temperature and then extensively washed with PBS. To measure Alcian blue deposition, dry wells were incubated with 1 mL of 6 N Guanidine HCl for 1 hour and then the absorbance was measured with a spectofotometer measured between 600 and 650 nm.

Kmt2d morphants = format: in vivo; conditions: Kmt2d morphant medaka embryos grown in 0.15 μM VE822
Experimental: as §1, §2

MLL4^Q4092X MSCs [3] = assay: DNA damage response in MSCs after ATR inhibition (immunofluorescence); format: cell-based, human; conditions: MLL4^Q4092X MSCs treated with ATR inhibitor
Experimental: (§3) For immunofluorescence assays, cells were seeded on coverslips coated with 0.1% gelatin (Sigma Aldrich #G1393). When needed, cells where fixed with 4% paraformaldeide for […] at 4° C. Coverslips were processed as described: permeabilization and blocking with PBS/1% BSA/5% goat serum/0.5% Triton X-100 (blocking solution) for 1 hour at room temperature, followed by incubation with primary antibody (diluted in the blocking solution) for 2 hours at RT (or overnight at 4° C., depending on the used primary antibody), 3-5 washes in PBS and incubation with secondary antibodies (diluted in the blocking solution), DRAQ5 for nuclear staining and phalloidin-TRITC for 1 h at room temperature. Images were acquired using a Leica TCS SP5 confocal microscope with HCX PL APO 63×/1.40 objective. Confocal z stacks were acquired with sections of 0.5 μm. In cases where image analysis was performed, image acquisition settings were kept constant.

MLL4^Q4092X MSCs [4] = assay: Nuclear to cytosolic localization of YAP/TAZ by immunofluorescence; format: cell-based, human; conditions: sparse condition
Experimental: Cell lines used in this study include NIH 3T3 (ATCC), HEK293T (ATCC), human primary fibroblasts derived from either healthy of Kabuki patients (Genomic and Genetic Disorders Biobank) and hTERT-immortalized human adipose-derived MSCs. Primary fibroblasts, NIH3T3 and HEK293T were maintained at 37° C. and 5% CO2 in DMEM medium supplemented with 10% Fetal Bovine Serum (Euroclone #ECS0180L), while MSCs were cultured in 1:1 DMEM/F-12 medium (Gibco #11320-074) supplemented with 10% Fetal Bovine Serum (Euroclone #ECS0180L).
For immunofluorescence assays, cells were seeded on coverslips coated with 0.1% gelatin (Sigma Aldrich #G1393). When needed, cells where fixed with 4% paraformaldeide for minutes at 4° C. […]
To quantify the nuclear to cytosolic localization of YAP-TAZ, the inventors adapted previously published MATLAB routines (Zambrano et al., 2016). […]
To estimate the average cytosolic intensity per cell, a ring of 30 pixels width (approximately 7 microns) around each segmented nuclei was found. […] The inventors then calculated for each cell the Nuclear to Cytosolic Intensity (NCI) as the ratio of the background corrected nuclear and cytosolic average YAP-TAZ intensity.

MLL4^Q4092X MSCs [5] = assay: H3K27me3 level and PcG condensate clustering after HDAC inhibitor treatment; format: cell-based, human
Experimental: as §3
In order to automatically detect and quantify PcG and TrxG complex proteins in fluorescence cell image z-stacks, the inventors developed an algorithm that implements a method derived from (Gregoretti et al., 2016) with variants and adaptations. The algorithm performs the 2D segmentation of cell nuclei and the detection of Protein Bodies (PBs) for each slice of the stack, followed by the 3D reconstruction and identification of nuclei and PBs. […]

MLL4^Q4092X MSCs [6] = assay: Nuclear morphology, chromatin compaction and Lamin A/C after HDAC inhibitor treatment; format: cell-based, human
Experimental: as §3
Confocal imaging data analyses were performed using Image J software. For 2D/3D analysis RDAQ5 DNA dye was used to identify the nucleus and define the ROI. Then the fluorescence intensity and physical parameters were determined. For the measure of volume and flatness the inventors performed a 3D analyses using the “3D plugin 596 suite”, an Image J plugin.

MO-Kmt2d: morpholino against the ATG initiation codon of medaka Kmt2d, 5′-CCCTGCTGCTGCTTTGATCTTTTTG-3′ (all phosphorodiamidate morpholino (PMO))
embryos with morphological cranio-facial anomalies (olKmt2d): 73±5%

CNCc1ccc(-c2cc(-c3nc(-c4ccc(S(=O)(=O)C(C)C)cc4)cnc3N)on2)cc1 [VE-822, BERZOSERTIB]
expression of a subset of ATR responsive genes (architectural chromatin genes) (MLL4^Q4092X MSCs [1]): rescued
chondrogenic differentiation potential (MLL4^Q4092X MSCs [2]; listed as ATR inhibitor): partially rescued
chondrogenic differentiation potential (MLL4^Q4092X MSCs [2]; listed as VX-970): sufficient to abolish the differentiation defects
chondrogenic and skeleton defects, head morphogenesis (Kmt2d morphants; listed as ATR inhibitor): sufficient to restore the chondrogenic and skeleton defects
chondrogenic and skeleton defects, head morphogenesis (Kmt2d morphants; listed as VX-970): sufficient to completely recover the chondrogenic and osteogenic defects
DNA damage response (MLL4^Q4092X MSCs [3]): without affecting DNA damage response
YAP/TAZ nuclear localization (mechanical properties of MSCs) (MLL4^Q4092X MSCs [4]): restored YAP/TAZ nuclear localization
YAP/TAZ nuclear localization (mechanical properties of MSCs) (MLL4^Q4092X MSCs [4]; listed as VX-970): sufficient to restore the mechanical properties

CC(/C=C/C(=O)NO)=C\[C@@H](C)C(=O)c1ccc(N(C)C)cc1 [TSA]
H3K27me3 level (MLL4^Q4092X MSCs [5]): reduced
clustering of PcG condensates (MLL4^Q4092X MSCs [5]): reduced
chromatin organization and nuclear architecture (MLL4^Q4092X MSCs [6]): rescued the altered chromatin organization and nuclear architecture
nuclear morphology and structure (relative abundance of Lamin A/C) (MLL4^Q4092X MSCs [6]): sufficient to re-establish proper nuclear morphology and structure
